Results: patent US8314150B2, “Kinase protein binding inhibitors” (priority 2008, dated 2012)

Tests used:
PI3K (p110δ/p85α) = target: T1, PI3K (p110δ/p85α) (Homo sapiens, UniProt O00329); experiment: KinaseProfiler screening; assay type: biochemical; settings: 1 μM, 10 μM ATP
T1 construct: purchased Millipore KinaseProfiler Service (Upstate Biotechnology, Inc)
Description: (§1) Cell Viability Assay—The Cells were treated with peptides for 24 hours at different peptide concentrations. The 3-(4,5-dimethylthiazol-2-yl)-5-(3-carboxymethoxyphenyl)-2-(4-sulfophenyl)-2H-tetrazolium compound from Promega Viability kit (Madison, Ill.) was added, and the cells were incubated at 37° C. for 1-2 hours. The optical density on 96-plate was analyzed with a microplate reader at 490 nm to determine cell viability. In addition, cells were stained with trypan blue after 24 hours of treatment with Y15 and the percent of cells that stained positive were determined with a hemacytometer. Cell adhesion assay—The poly-L-Lysine or Collagen (5 μg/ml) coated 96-well plates were blocked with the blocking buffer (medium with 0.5% BSA) for 1 hour at 37 C. The cells were pre-treated with drugs for 3 hours and plated for adhesion at 4×10^5 cells. Cells were incubated at 37 C for 1 hour, fixed in 3.7% formaldehyde, washed in 0.1% BSA in PBS and stained with crystal violet (5 mg/ml in 2% ethanol) for 10 minutes. Then 2% SDS was added to the dried plated and OD at 590 nm was measured for detecting cell adhesion. Western Blotting—Cells or homogenized tumor samples were washed twice with cold 1×PBS and lysed on ice for 30 minutes in a buffer containing: 50 mM Tris-HCl (pH 7.5), 150 mM NaCl, 1% Triton-X, 0.5% NaDOC, 0.1% SDS, 5 mM EDTA, 50 mM NaF, 1 mM NaVO3, 10% glycerol and protease inhibitors: 10 μg/ml leupeptin, 10 μg/ml PMSF and 1 μg/ml aprotinin. The lysates were cleared by centrifugation at 10,000 rpm for 30 minutes at 4° C. Protein concentrations were determined using a Bio-Rad Kit. The boiled samples were loaded on Ready SDS-10% PAGE gels (Bio Rad, Inc) and used for Western blot analysis with the protein-specific antibody. Immunoblots were developed with chemiluminescence Renaissance reagent (NEN Life Science Products, Inc). Immunoprecipitation. Immunoprecipitation was performed according to the standard protocol. In brief, the pre-cleared lysates with equal amount of protein were incubated with 1 μg of primary antibody and 30 μl A/G agarose beads overnight at 4° C. The precipitates were washed with lysis buffer three times and re-suspended in 2× Laemmli buffer. The boiled samples were used for Western blotting, as described above. Detachment Assay—Cells were plated with and without inhibitors for 24 hours, and detached and attached cells were counted in a hemocytometer. We calculated the percent of detachment by dividing the number of detached cells by the total number of cells. The percent of detached cells was calculated in three independent experiments. Apoptosis Assay. Detached cells were collected and fixed in 3.7% formaldehyde in 1×PBS solution for the apoptosis assay. Detection of apoptosis was done with Hoechst 33342 staining. The percent of apoptotic cells was calculated as a ratio of apoptotic detached cells divided by the total number of cells in three independent experiments in several fields with the fluorescent microscope. For each experiment 300 cells per treatment were counted. In vitro Kinase Assay—10 μCi of [γ-^32P]-ATP in a kinase buffer (20 mM HEPES, pH 7.4, 5 mM MgCl2, 5 mM MnCl2, 0.1 mM Na3VO4 with 0.1 μg of purified FAK protein were incubated in a kinase buffer with 10 μCi of [γ-^32P]-ATP. The kinase reaction was performed for 5 minutes at room temperature and stopped by addition of 2× Laemmli buffer. Proteins were separated on a Ready SDS-10% PAGE gel, and the phosphorylated enolase was visualized by autoradiography. KinaseProfiler screening—Kinase specificity screening was performed with KinaseProfiler™ Service (Millipore) available on http://www.millipore.com/drugdiscovery/dd3/KinaseProfiler. The screening was performed with 1 μM Y15, 10 μM ATP and kinase substrates on 9 recombinant kinases according to Millipore protocol. Tumor Growth in Nude Mice—Female nude mice, 6 weeks old, were purchased from Harlan Laboratory. […]

VEGFR-3 = target: T2, VEGFR-3 (Homo sapiens, UniProt P35916); experiment: KinaseProfiler screening; assay type: biochemical; settings: 1 μM, 10 μM ATP
T2 construct: purchased Millipore KinaseProfiler Service (Upstate Biotechnology, Inc)
T2 sequence (P35916 25-1363): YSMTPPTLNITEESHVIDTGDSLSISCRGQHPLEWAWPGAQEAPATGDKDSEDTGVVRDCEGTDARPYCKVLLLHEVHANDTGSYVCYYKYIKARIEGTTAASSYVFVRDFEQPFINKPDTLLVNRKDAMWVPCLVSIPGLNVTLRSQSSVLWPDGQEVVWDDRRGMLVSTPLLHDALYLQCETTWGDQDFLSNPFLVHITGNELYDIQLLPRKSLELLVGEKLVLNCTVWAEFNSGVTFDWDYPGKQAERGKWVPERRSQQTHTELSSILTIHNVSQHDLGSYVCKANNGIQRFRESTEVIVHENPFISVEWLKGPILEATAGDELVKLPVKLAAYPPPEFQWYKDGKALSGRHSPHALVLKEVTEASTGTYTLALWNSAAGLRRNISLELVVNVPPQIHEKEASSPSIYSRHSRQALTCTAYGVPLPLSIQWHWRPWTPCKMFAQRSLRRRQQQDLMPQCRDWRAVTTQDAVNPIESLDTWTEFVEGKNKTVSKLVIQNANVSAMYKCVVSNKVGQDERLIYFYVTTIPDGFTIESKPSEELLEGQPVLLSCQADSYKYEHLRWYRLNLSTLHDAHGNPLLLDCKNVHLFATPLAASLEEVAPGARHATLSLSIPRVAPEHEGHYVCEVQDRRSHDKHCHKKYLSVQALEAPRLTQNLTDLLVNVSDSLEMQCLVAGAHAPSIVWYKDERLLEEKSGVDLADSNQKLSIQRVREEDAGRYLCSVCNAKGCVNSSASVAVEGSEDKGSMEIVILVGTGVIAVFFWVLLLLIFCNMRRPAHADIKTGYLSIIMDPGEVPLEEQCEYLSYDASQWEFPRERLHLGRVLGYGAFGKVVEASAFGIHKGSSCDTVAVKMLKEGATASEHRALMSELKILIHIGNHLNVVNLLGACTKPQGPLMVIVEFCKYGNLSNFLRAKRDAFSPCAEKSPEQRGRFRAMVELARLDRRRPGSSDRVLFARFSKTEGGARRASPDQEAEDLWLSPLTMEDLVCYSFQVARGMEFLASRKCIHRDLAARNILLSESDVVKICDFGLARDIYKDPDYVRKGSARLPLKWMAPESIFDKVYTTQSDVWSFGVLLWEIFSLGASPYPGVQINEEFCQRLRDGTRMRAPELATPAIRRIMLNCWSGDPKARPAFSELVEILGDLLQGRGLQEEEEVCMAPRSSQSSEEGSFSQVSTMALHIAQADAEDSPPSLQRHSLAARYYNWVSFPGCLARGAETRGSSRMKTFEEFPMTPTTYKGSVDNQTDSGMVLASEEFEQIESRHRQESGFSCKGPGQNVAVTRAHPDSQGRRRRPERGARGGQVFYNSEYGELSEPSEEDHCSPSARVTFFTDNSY
Description: as §1

Pyk2 = target: T3, Pyk2 (Homo sapiens, UniProt Q14289); experiment: KinaseProfiler screening; assay type: biochemical; settings: 1 μM, 10 μM ATP
T3 construct: purchased Millipore KinaseProfiler Service (Upstate Biotechnology, Inc)
T3 sequence (Q14289 whole entry): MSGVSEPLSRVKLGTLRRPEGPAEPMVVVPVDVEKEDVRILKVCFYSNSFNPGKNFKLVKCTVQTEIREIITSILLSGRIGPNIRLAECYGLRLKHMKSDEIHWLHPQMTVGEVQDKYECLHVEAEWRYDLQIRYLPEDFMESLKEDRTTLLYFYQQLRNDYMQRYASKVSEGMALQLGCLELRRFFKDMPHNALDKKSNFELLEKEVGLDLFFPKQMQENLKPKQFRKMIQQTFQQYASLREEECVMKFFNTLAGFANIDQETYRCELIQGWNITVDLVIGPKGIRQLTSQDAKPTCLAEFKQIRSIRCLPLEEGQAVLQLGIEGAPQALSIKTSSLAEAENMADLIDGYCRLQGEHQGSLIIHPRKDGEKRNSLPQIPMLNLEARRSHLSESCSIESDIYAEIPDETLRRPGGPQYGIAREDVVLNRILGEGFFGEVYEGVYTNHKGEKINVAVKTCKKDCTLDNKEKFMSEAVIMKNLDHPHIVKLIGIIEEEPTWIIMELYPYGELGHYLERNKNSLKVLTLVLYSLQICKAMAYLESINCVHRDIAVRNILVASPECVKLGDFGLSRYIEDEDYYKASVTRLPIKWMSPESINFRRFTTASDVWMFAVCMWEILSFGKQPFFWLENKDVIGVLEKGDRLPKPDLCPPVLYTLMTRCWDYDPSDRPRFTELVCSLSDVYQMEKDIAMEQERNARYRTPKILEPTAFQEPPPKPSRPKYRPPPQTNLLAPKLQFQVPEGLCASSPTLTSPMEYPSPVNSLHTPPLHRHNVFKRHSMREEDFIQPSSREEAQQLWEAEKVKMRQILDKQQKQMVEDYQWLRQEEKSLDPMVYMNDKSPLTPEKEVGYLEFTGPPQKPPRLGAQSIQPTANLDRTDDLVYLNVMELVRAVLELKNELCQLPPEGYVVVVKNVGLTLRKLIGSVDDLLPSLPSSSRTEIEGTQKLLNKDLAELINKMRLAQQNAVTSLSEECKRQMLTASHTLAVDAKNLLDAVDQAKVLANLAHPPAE
Description: as §1

Met = target: T4, Met (Homo sapiens, UniProt P08581); experiment: KinaseProfiler screening; assay type: biochemical; settings: 1 μM, 10 μM ATP
T4 construct: purchased Millipore KinaseProfiler Service (Upstate Biotechnology, Inc)
Description: as §1

IGF-1 = target: T5, IGF-1 (Homo sapiens, UniProt P08069); experiment: KinaseProfiler screening; assay type: biochemical; settings: 1 μM, 10 μM ATP
T5 construct: purchased Millipore KinaseProfiler Service (Upstate Biotechnology, Inc)
Description: as §1

c-RAF = target: T6, c-RAF (Homo sapiens, UniProt P04049); experiment: KinaseProfiler screening; assay type: biochemical; settings: 1 μM, 10 μM ATP
T6 construct: purchased Millipore KinaseProfiler Service (Upstate Biotechnology, Inc)
T6 sequence (P04049 whole entry): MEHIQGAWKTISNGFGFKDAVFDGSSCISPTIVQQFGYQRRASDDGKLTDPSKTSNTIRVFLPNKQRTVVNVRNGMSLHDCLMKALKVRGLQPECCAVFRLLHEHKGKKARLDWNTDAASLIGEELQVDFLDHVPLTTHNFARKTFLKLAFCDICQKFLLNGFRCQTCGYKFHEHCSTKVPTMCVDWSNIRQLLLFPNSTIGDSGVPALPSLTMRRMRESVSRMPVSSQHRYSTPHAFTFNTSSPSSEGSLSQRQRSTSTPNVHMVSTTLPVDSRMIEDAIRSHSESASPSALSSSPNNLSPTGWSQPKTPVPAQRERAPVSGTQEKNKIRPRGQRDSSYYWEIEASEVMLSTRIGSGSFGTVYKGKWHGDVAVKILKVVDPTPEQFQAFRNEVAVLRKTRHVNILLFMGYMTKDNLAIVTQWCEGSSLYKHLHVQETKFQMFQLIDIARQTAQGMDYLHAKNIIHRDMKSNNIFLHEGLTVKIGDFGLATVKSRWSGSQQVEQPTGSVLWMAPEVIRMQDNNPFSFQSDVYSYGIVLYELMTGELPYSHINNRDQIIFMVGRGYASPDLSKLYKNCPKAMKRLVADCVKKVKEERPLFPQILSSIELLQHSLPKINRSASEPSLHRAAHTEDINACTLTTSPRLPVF
Description: as §1

PDGFR-α = target: T7, PDGFR-α (Homo sapiens, UniProt P16234); experiment: KinaseProfiler screening; assay type: biochemical; settings: 1 μM, 10 μM ATP
T7 construct: purchased Millipore KinaseProfiler Service (Upstate Biotechnology, Inc)
Description: as §1

EGFR = target: T8, EGFR (Homo sapiens, UniProt P00533); experiment: KinaseProfiler screening; assay type: biochemical; settings: 1 μM, 10 μM ATP
T8 construct: purchased Millipore KinaseProfiler Service (Upstate Biotechnology, Inc)
T8 sequence (P00533 25-1210): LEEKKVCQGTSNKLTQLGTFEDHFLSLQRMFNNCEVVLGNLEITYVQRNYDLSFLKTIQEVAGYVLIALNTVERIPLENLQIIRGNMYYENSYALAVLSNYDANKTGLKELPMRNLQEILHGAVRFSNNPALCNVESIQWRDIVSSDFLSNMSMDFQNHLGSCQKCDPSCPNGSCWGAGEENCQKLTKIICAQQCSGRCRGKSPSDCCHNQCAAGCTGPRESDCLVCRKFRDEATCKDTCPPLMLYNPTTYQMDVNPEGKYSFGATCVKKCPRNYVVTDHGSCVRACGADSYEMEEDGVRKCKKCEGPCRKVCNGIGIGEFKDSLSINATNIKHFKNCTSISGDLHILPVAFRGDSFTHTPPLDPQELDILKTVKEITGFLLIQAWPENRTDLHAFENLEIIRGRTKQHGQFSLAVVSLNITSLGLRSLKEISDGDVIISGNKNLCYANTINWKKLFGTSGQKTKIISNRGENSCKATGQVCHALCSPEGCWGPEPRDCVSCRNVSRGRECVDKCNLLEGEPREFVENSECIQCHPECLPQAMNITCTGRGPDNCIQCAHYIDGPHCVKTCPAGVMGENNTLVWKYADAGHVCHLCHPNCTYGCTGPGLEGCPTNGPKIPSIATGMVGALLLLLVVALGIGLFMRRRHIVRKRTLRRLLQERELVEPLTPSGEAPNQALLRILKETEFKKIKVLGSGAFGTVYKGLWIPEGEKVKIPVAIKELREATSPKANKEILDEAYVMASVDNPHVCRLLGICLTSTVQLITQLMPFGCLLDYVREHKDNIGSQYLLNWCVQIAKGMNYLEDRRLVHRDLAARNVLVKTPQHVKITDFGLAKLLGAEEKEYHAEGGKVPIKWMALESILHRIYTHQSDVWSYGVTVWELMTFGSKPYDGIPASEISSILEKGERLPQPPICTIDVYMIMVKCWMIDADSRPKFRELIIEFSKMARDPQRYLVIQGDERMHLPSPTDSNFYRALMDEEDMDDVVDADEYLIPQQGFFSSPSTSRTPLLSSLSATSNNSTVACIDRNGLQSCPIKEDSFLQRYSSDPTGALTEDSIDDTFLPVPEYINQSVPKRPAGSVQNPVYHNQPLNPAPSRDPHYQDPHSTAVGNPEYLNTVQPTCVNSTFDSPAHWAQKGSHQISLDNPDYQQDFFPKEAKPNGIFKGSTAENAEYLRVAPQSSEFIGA
Description: as §1

[1] = tested on: Y397 phosphorylation of FAK; experiment: Western blotting with Y397 antibody, time course in pancreatic tumor cells; assay type: cell-based, human; settings: 100 μM
Description: (§2) Cell Viability Assay—The Cells were treated with peptides for 24 hours at different peptide concentrations. The 3-(4,5-dimethylthiazol-2-yl)-5-(3-carboxymethoxyphenyl)-2-(4-sulfophenyl)-2H-tetrazolium compound from Promega Viability kit (Madison, Ill.) was added, and the cells were incubated at 37° C. for 1-2 hours. The optical density on 96-plate was analyzed with a microplate reader at 490 nm to determine cell viability. In addition, cells were stained with trypan blue after 24 hours of treatment with Y15 and the percent of cells that stained positive were determined with a hemacytometer. […] Then 2% SDS was added to the dried plated and OD at 590 nm was measured for detecting cell adhesion. […] Protein concentrations were determined using a Bio-Rad Kit. The boiled samples were loaded on Ready SDS-10% PAGE gels (Bio Rad, Inc) and used for Western blot analysis with the protein-specific antibody. […] Detachment Assay—Cells were plated with and without inhibitors for 24 hours, and detached and attached cells were counted in a hemocytometer. We calculated the percent of detachment by dividing the number of detached cells by the total number of cells. The percent of detached cells was calculated in three independent experiments. […] For each experiment 300 cells per treatment were counted. […]

[2] = tested on: total FAK phosphorylation; experiment: FAK immunoprecipitation and Western blotting with P-tyrosine antibody, BT474; assay type: cell-based; settings: IP with FAK antibody
Description: as §2

Panc-1 cells = experiment: Apoptosis assay (Hoechst staining), Panc-1; assay type: cell-based, human
Description: Cell Viability Assay—The Cells were treated with peptides for 24 hours at different peptide concentrations. The 3-(4,5-dimethylthiazol-2-yl)-5-(3-carboxymethoxyphenyl)-2-(4-sulfophenyl)-2H-tetrazolium compound from Promega Viability kit (Madison, Ill.) was added, and the cells were incubated at 37° C. for 1-2 hours. The optical density on 96-plate was analyzed with a microplate reader at 490 nm to determine cell viability. In addition, cells were stained with trypan blue after 24 hours of treatment with Y15 and the percent of cells that stained positive were determined with a hemacytometer. Cell adhesion assay—The poly-L-Lysine or Collagen (5 μg/ml) coated 96-well plates were blocked with the blocking buffer (medium with 0.5% BSA) for 1 hour at 37 C. The cells were pre-treated with drugs for 3 hours and plated for adhesion at 4×10^5 cells. Cells were incubated at 37 C for 1 hour, fixed in 3.7% formaldehyde, washed in 0.1% BSA in PBS and stained with crystal violet (5 mg/ml in 2% ethanol) for 10 minutes. Then 2% SDS was added to the dried plated and OD at 590 nm was measured for detecting cell adhesion. […] Protein concentrations were determined using a Bio-Rad Kit. The boiled samples were loaded on Ready SDS-10% PAGE gels (Bio Rad, Inc) and used for Western blot analysis with the protein-specific antibody. […] Detachment Assay—Cells were plated with and without inhibitors for 24 hours, and detached and attached cells were counted in a hemocytometer. We calculated the percent of detachment by dividing the number of detached cells by the total number of cells. The percent of detached cells was calculated in three independent experiments. […] The percent of apoptotic cells was calculated as a ratio of apoptotic detached cells divided by the total number of cells in three independent experiments in several fields with the fluorescent microscope. For each experiment 300 cells per treatment were counted. […]

In the case of `Cl.Cl.Cl.Cl.Nc1cc(N)c(N)cc1N` [Y15, 1,2,4,5-benzenetetraamine tetrahydrochloride], the kinase activity (PI3K (p110δ/p85α)) is reported as “did not significantly decrease kinase activity”, the kinase activity (VEGFR-3) is reported as “did not significantly decrease kinase activity” and the kinase activity (Pyk2) is reported as “did not significantly decrease kinase activity”. For the same molecule, the kinase activity (Met) was “did not significantly decrease kinase activity”, the kinase activity (IGF-1) was “did not significantly decrease kinase activity” and the kinase activity (c-RAF) was “did not significantly decrease kinase activity”. The kinase activity (PDGFR-α) was “did not significantly decrease kinase activity”, the kinase activity (EGFR) was “did not significantly decrease kinase activity” and the “treatment time enough to completely block Y397-phosphorylation” value [1] was 24 h. For the same molecule, the “Y397 phosphorylation after 6 hours or less” value ([1]; 6 hours or less) was “did not significantly decrease Y397 phosphorylation”, the “total FAK phosphorylation (P-tyrosine)” value [2] was “blocked total phosphorylation of FAK” and the “apoptotic nuclei (Hoechst)” value (Panc-1 cells; 50 μM) was “no detection of apoptotic nuclei”. The increase in apoptosis (Panc-1 cells; 50-100 μM, not significant) was “less than 10%”.
